Test results taken from patent US20220007644A1, “COMPOSITIONS COMPRISING PYRIDINE CARBOXYLATE HERBICIDES WITH PHOTOSYSTEM II AND OPTIONAL HPPD INHIBITOR HERBICIDES” (Corteva Agriscience LLC, priority 2018, published 2022).

Assays:
Type in all cases: in vivo
[1] = system: AMARE, Amaranthus retroflexus (pigweed); experiment: Greenhouse postemergence herbicidal effect (visual injury, 20-22 d)
Excerpt: (§1) Greenhouse Trial Methodology—Evaluation of Postemergence Herbicidal Effect
(§2) Seeds of the desired test plant species were planted in a 90:10% v/v (volume/volume) mixture of PRO-MIX® BX (Premier Tech Horticulture, Quakertown, Pa., USA) and PROFILE®GREENS GRADE™ (Profile Products LLC, Buffalo Grove, Ill., USA) planting mixture, which typically has a pH of 5.2 to 6.2 and an organic matter content of at least 50 percent, in plastic pots with a surface area of 103.2 square centimeters (cm^2). In some aspects, to help ensure good germination and healthy plants, a fungicide treatment and/or other chemical or physical treatment was applied. The plants were grown for 7-36 days (d) in a greenhouse with an approximate 14-hour (h) photoperiod which was maintained at about 23° C. during the day and 22° C. during the night. Nutrients and water were added on a regular basis and supplemental lighting was provided with overhead metal halide 1000-Watt lamps as necessary. The plants were employed for testing when they reached the second or third true leaf stage.
(§3) Emulsifiable concentrates of each of each pyridine carboxylate herbicide (Compound A or Compound B) were prepared at 100 grams acid equivalent per liter (g ae/L). The emulsifiable concentrates also included a safener, cloquintocet-mexyl, at 120 grams active ingredient per liter (g ai/L), unless otherwise noted below. An aliquot of each emulsifiable concentrate was placed in a 25 mL glass vial and diluted with an aqueous mixture of 1.25% (v/v) ACTIROB® B esterified rapeseed oil (Bayer Crop Science, Research Triangle Park, N.C., USA) or MSO® Concentrate with LECI-TECH® methylated soybean oil (Loveland Products, Loveland, Colo., USA) to obtain concentrated stock solutions at the highest application rate for each herbicide, based upon a 12 milliliter (mL) application volume at a rate of 187 liters per hectare (L/ha). The concentrated stock solutions were further diluted with an aqueous mixture of 1.25% v/v ACTIROB® B or MSO® Concentrate with LECI-TECH® to obtain stock solutions at reduced application rates for each herbicide. Spray solutions of the herbicide combinations (Compound A or Compound B plus PS-II herbicide and optional HPPD herbicide) were prepared by adding weighed amounts or aliquots of the PS-II herbicide and optional HPPD herbicide to the stock solutions of Compound A or Compound B to form 12-mL spray solutions in two- or three-way combinations.
(§4) The spray solutions were applied to the plant material with an overhead Mandel track sprayer equipped with 8002E nozzles calibrated to deliver 187 L/ha over an application area of 0.503 square meters (m^2) at a spray height of 18 inches ([…] centimeters (cm)) above the average plant canopy. Control plants were sprayed in the same manner with the solvent blank. All pyridine carboxylate herbicide (component a) application rates are given as “g ae/ha” and all PS II inhibitor herbicide (component b) and HPPD inhibitor herbicide (component c) application rates are given as “g ai/ha.”
(§5) The treated plants and control plants were placed in a greenhouse as described above and watered by sub-irrigation to prevent wash-off of the test compounds. After 20-22 d, the condition of the test plants as compared with that of the control plants was determined visually and scored on a scale of 0 to 100 percent where 0 corresponds to no injury and 100 corresponds to complete kill.

[2] = system: BRSNW, Brassica napus (winter rape); experiment: as above
Excerpt: as §1, §2, §3, §4, §5

[3] = system: CHEAL, Chenopodium album L. (common lambsquarters); experiment: as above
Excerpt: as §1, §2, §3, §4, §5

[4] = system: CIRAR, Cirsium arvense (Canada thistle); experiment: as above
Excerpt: as §1, §2, §3, §4, §5

[5] = system: KCHSC, Kochia scoparia (kochia); experiment: as above
Excerpt: as §1, §2, §3, §4, §5

[6] = system: MATCH, Matricaria chamomilla (wild chamomile); experiment: as above
Excerpt: as §1, §2, §3, §4, §5

[7] = system: POLCO, Polygonum convolvulus (wild buckwheat); experiment: as above
Excerpt: as §1, §2, §3, §4, §5

[8] = system: SASKR, Salsola kali (Russian thistle); experiment: as above
Excerpt: as §1, §2, §3, §4, §5

[9] = system: SINAR, Sinapis arvensis (wild mustard); experiment: as above
Excerpt: as §1, §2, §3, §4, §5

[10] = system: HORVS, Hordeum vulgare (spring barley); experiment: Greenhouse postemergence phytotoxicity on crop (visual injury, 20-22 d)
Excerpt: as §1, §2, §3, §4, §5

[11] = system: TRZAS, Triticum aestivum (spring wheat); experiment: as above
Excerpt: as §1, §2, §3, §4, §5

[12] = system: ALOMY, Alopecurus myosuroides (blackgrass); experiment: Greenhouse postemergence herbicidal effect (visual injury, 20-22 d); conditions: 450 g ai/ha alone
Excerpt: as §1, §2, §3, §4, §5

[13] = system: AVEFA, Avena fatua (wild oat); experiment: as above; conditions: 450 g ai/ha alone
Excerpt: as §1, §2, §3, §4, §5

[14] = system: BRSNN, Brassica napus (spring rape); experiment: as above; conditions: 450 g ai/ha alone
Excerpt: as §1, §2, §3, §4, §5

[15] = system: VIOTR, Viola tricolor (wild pansy); experiment: as above; conditions: 450 g ai/ha alone
Excerpt: as §1, §2, §3, §4, §5

[16] = system: ABUTH, Abutilon theophrasti (velvetleaf); experiment: as above; conditions: 5 g ai/ha alone
Excerpt: as §1, §2, §3, §4, §5

[17] = system: GLXMA, Glycine max (soybean); experiment: as above; conditions: 5 g ai/ha alone
Excerpt: as §1, §2, §3, §4, §5

[18] = system: IPOHE, Ipomoea hederacea (ivyleaf morningglory); experiment: as above; conditions: 5 g ai/ha alone
Excerpt: as §1, §2, §3, §4, §5

[19] = system: SORVU, Sorghum vulgare (grain sorghum); experiment: as above; conditions: 5 g ai/ha alone
Excerpt: as §1, §2, §3, §4, §5

[20] = Fallopia convolvulus, post-emergence, read-out: visual injury Obs

CCC(C)n1c(=O)[nH]c(C)c(Br)c1=O (stereo not shown) [Bromacil, 5-bromo-3-sec-butyl-6-methyluracil]
visual injury Obs ([1]; 900 g ai/ha alone): 20% | visual injury Obs ([2]; 900 g ai/ha alone): 5% | visual injury Obs ([3]; 900 g ai/ha alone): 53% | visual injury Obs ([4]; 900 g ai/ha alone): 18% | visual injury Obs ([5]; 900 g ai/ha alone): 91% | visual injury Obs ([6]; 900 g ai/ha alone): 5% | pest or weed control at 900 g/ha [7, 20]: 10% | visual injury Obs ([8]; 900 g ai/ha alone): 25% | visual injury Obs ([9]; 900 g ai/ha alone): 35% | visual injury Obs ([10]; 900 g ai/ha alone): 10% | visual injury Obs ([11]; 900 g ai/ha alone): 0%

CCOC(=O)Nc1cccc(OC(=O)Nc2ccccc2)c1 [Desmedipham, 3-ethoxycarbonylaminophenyl phenylcarbamate]
visual injury Obs ([1]; 162.5 g ai/ha alone): 15% | visual injury Obs ([2]; 162.5 g ai/ha alone): 0% | visual injury Obs ([3]; 162.5 g ai/ha alone): 0% | visual injury Obs ([4]; 162.5 g ai/ha alone): 10% | visual injury Obs ([5]; 162.5 g ai/ha alone): 0% | visual injury Obs ([6]; 162.5 g ai/ha alone): 0% | pest or weed control at 162.5 g/ha [7, 20]: 0% | visual injury Obs ([8]; 162.5 g ai/ha alone): 0% | visual injury Obs ([9]; 162.5 g ai/ha alone): 0% | visual injury Obs ([10]; 162.5 g ai/ha alone): 0% | visual injury Obs ([11]; 162.5 g ai/ha alone): 0%

CCNc1nc(Cl)nc(NC(C)C)n1 [Atrazine, 6-chloro-N^2-ethyl-N^4-isopropyl-1,3,5-triazine-2,4-diamine, reference compound]
visual injury Obs [12]: 25% | visual injury Obs [13]: 13% | visual injury Obs [14]: 28% | visual injury Obs [15]: 20%

CSc1nnc(C(C)(C)C)c(=O)n1N [Metribuzin, 4-amino-6-tert-butyl-3-methythio-1,2,4-triazin-5(4H)-one]
visual injury ([1]; 25 g ai/ha alone): 0% | visual injury ([2]; 25 g ai/ha alone): 0% | visual injury ([3]; 25 g ai/ha alone): 3% | visual injury ([4]; 25 g ai/ha alone): 3% | visual injury ([5]; 25 g ai/ha alone): 0% | visual injury ([6]; 25 g ai/ha alone): 0% | visual injury ([7]; 25 g ai/ha alone): 0% | visual injury ([8]; 25 g ai/ha alone): 0% | visual injury ([9]; 25 g ai/ha alone): 18% | visual injury ([10]; 25 g ai/ha alone): 0% | visual injury ([11]; 25 g ai/ha alone): 0%

CCC(=O)Nc1ccc(Cl)c(Cl)c1 [Propanil, 3′,4′-dichloropropionanilide, reference compound]
visual injury Obs [16]: 10% | visual injury Obs ([4]; 5 g ai/ha alone): 28% | visual injury Obs [17]: 23% | visual injury Obs [18]: 38% | pest or weed control at 5 g/ha ([7]; Fallopia convolvulus, post-emergence, 5 g ai/ha alone, read-out: visual injury Obs): 20% | visual injury Obs [19]: 15%
